According to PubChem BioAssay (NCI):
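Where inhibition never reached the appropriate level, the endpoint shown equals the highest concentration tested. Otherwise, values were interpolated linearly from a five-concentration, 48-hour dose response in 96-well plates. GI50 = concentration required for 50% inhibition of growth. The concentration for full growth arrest is given as TGI.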

Legend:
Test in all cases: inhibition of tumour cell growth, NCI panel, 48 h
UACC-257 melanoma = test system: UACC-257 melanoma
SK-MEL-5 melanoma = test system: SK-MEL-5 melanoma
KM12 colon = test system: KM12 colon
MCF7 breast = test system: MCF7 breast
NCI-H522 lung = test system: NCI-H522 lung
M14 melanoma = test system: M14 melanoma
RXF 393 renal = test system: RXF 393 renal
LOX IMVI melanoma = test system: LOX IMVI melanoma
RPMI-8226 leukemia = test system: RPMI-8226 leukemia
OVCAR-3 ovarian = test system: OVCAR-3 ovarian
IGROV1 ovarian = test system: IGROV1 ovarian
MDA-MB-435 = test system: MDA-MB-435
MALME-3M melanoma = test system: MALME-3M melanoma
NCI-H460 lung = test system: NCI-H460 lung
DU-145 prostate = test system: DU-145 prostate
SF-295 CNS = test system: SF-295 CNS
BT-549 breast = test system: BT-549 breast
HCC-2998 colon = test system: HCC-2998 colon
MDA-MB-231 breast = test system: MDA-MB-231 breast
OVCAR-8 ovarian = test system: OVCAR-8 ovarian
SR leukemia = test system: SR leukemia
CCRF-CEM leukemia = test system: CCRF-CEM leukemia
MOLT-4 leukemia = test system: MOLT-4 leukemia
A549 NSCLC = test system: A549 NSCLC
HOP-92 NSCLC = test system: HOP-92 NSCLC
PC-3 prostate = test system: PC-3 prostate
COLO 205 colon = test system: COLO 205 colon
UO-31 renal = test system: UO-31 renal
CAKI-1 renal = test system: CAKI-1 renal
SNB-75 CNS = test system: SNB-75 CNS
SK-OV-3 ovarian = test system: SK-OV-3 ovarian
SK-MEL-2 melanoma = test system: SK-MEL-2 melanoma
TK-10 renal = test system: TK-10 renal
SF-268 CNS = test system: SF-268 CNS
SW-620 colon = test system: SW-620 colon
NCI-H23 lung = test system: NCI-H23 lung
HL-60(TB) leukemia = test system: HL-60(TB) leukemia
HS 578T breast = test system: HS 578T breast
HT29 colon = test system: HT29 colon
HCT-15 colon = test system: HCT-15 colon
EKVX NSCLC = test system: EKVX NSCLC
SN12C renal = test system: SN12C renal
OVCAR-4 ovarian = test system: OVCAR-4 ovarian
OVCAR-5 ovarian = test system: OVCAR-5 ovarian
ACHN renal = test system: ACHN renal
UACC-62 melanoma = test system: UACC-62 melanoma
786-0 renal = test system: 786-0 renal
HCT-116 colon = test system: HCT-116 colon
T-47D breast = test system: T-47D breast
SNB-19 CNS = test system: SNB-19 CNS
NCI-H226 lung = test system: NCI-H226 lung
SK-MEL-28 melanoma = test system: SK-MEL-28 melanoma
HOP-62 NSCLC = test system: HOP-62 NSCLC
U251 CNS = test system: U251 CNS
SF-539 CNS = test system: SF-539 CNS
NCI/ADR-RES ovarian = test system: NCI/ADR-RES ovarian

Which results are given for `CCCCCCC/C(=N\N=C(N)N)c1ccc(O)cc1`?
GI50 (UACC-257 melanoma): 1.76 µM; TGI (UACC-257 melanoma): 3.81 µM; GI50 (SK-MEL-5 melanoma): 1.5 µM; TGI (SK-MEL-5 melanoma): 2.82 µM; GI50 (KM12 colon): 1.73 µM; TGI (KM12 colon): 3.52 µM; GI50 (MCF7 breast): 1.71 µM; TGI (MCF7 breast): 4.43 µM; GI50 (NCI-H522 lung): 1.62 µM; TGI (NCI-H522 lung): 3.48 µM; GI50 (M14 melanoma): 1.71 µM; TGI (M14 melanoma): 3.18 µM; GI50 (RXF 393 renal): 1.94 µM; TGI (RXF 393 renal): 5.16 µM; GI50 (LOX IMVI melanoma): 1.62 µM; TGI (LOX IMVI melanoma): 2.97 µM; GI50 (RPMI-8226 leukemia): 1.71 µM; TGI (RPMI-8226 leukemia): 4.3 µM; GI50 (OVCAR-3 ovarian): 2.23 µM; TGI (OVCAR-3 ovarian): 7.84 µM; GI50 (IGROV1 ovarian): 2.28 µM; TGI (IGROV1 ovarian): 10.7 µM; GI50 (MDA-MB-435): 1.71 µM; TGI (MDA-MB-435): 3.44 µM; GI50 (MALME-3M melanoma): 1.77 µM; TGI (MALME-3M melanoma): 3.52 µM; GI50 (NCI-H460 lung): 1.82 µM; TGI (NCI-H460 lung): 3.68 µM; GI50 (DU-145 prostate): 3.15 µM; TGI (DU-145 prostate): 11 µM; GI50 (SF-295 CNS): 1.77 µM; TGI (SF-295 CNS): 4.46 µM; GI50 (BT-549 breast): 2.41 µM; TGI (BT-549 breast): 8.65 µM; GI50 (HCC-2998 colon): 1.62 µM; TGI (HCC-2998 colon): 3 µM; GI50 (MDA-MB-231 breast): 1.67 µM; TGI (MDA-MB-231 breast): 3.54 µM; GI50 (OVCAR-8 ovarian): 2.12 µM; TGI (OVCAR-8 ovarian): 5.26 µM; GI50 (SR leukemia): 1.67 µM; TGI (SR leukemia): 3.96 µM; GI50 (CCRF-CEM leukemia): 1.96 µM; TGI (CCRF-CEM leukemia): 5.77 µM; GI50 (MOLT-4 leukemia): 1.67 µM; TGI (MOLT-4 leukemia): 4.76 µM; GI50 (A549 NSCLC): 2.88 µM; TGI (A549 NSCLC): 17.2 µM; GI50 (HOP-92 NSCLC): 0.692 µM; TGI (HOP-92 NSCLC): 3.19 µM; GI50 (PC-3 prostate): 2.17 µM; TGI (PC-3 prostate): 8.92 µM; GI50 (COLO 205 colon): 1.74 µM; TGI (COLO 205 colon): 3.16 µM; GI50 (UO-31 renal): 2.38 µM; TGI (UO-31 renal): 12.1 µM; GI50 (CAKI-1 renal): 2.8 µM; TGI (CAKI-1 renal): 11.8 µM; GI50 (SNB-75 CNS): 1.58 µM; TGI (SNB-75 CNS): 5.41 µM; GI50 (SK-OV-3 ovarian): 3.04 µM; TGI (SK-OV-3 ovarian): 11.2 µM; GI50 (SK-MEL-2 melanoma): 1.96 µM; TGI (SK-MEL-2 melanoma): 3.85 µM; GI50 (TK-10 renal): 5.53 µM; TGI (TK-10 renal): 18 µM; GI50 (SF-268 CNS): 1.77 µM; TGI (SF-268 CNS): 5.31 µM; GI50 (SW-620 colon): 1.65 µM; TGI (SW-620 colon): 3.35 µM; GI50 (NCI-H23 lung): 2.6 µM; TGI (NCI-H23 lung): 10.9 µM; GI50 (HL-60(TB) leukemia): 1.75 µM; TGI (HL-60(TB) leukemia): 3.65 µM; GI50 (HS 578T breast): 3.14 µM; TGI (HS 578T breast): 24.7 µM; GI50 (HT29 colon): 2.35 µM; TGI (HT29 colon): 6.25 µM; GI50 (HCT-15 colon): 3.48 µM; TGI (HCT-15 colon): 12.9 µM; GI50 (EKVX NSCLC): 2.71 µM; TGI (EKVX NSCLC): 14 µM; GI50 (SN12C renal): 2.76 µM; TGI (SN12C renal): 11.8 µM; GI50 (OVCAR-4 ovarian): 1.65 µM; TGI (OVCAR-4 ovarian): 12.3 µM; GI50 (OVCAR-5 ovarian): 3.83 µM; TGI (OVCAR-5 ovarian): 15.3 µM; GI50 (ACHN renal): 2.25 µM; TGI (ACHN renal): 5.13 µM; GI50 (UACC-62 melanoma): 1.55 µM; TGI (UACC-62 melanoma): 3.26 µM; GI50 (786-0 renal): 2.16 µM; TGI (786-0 renal): 5.31 µM; GI50 (HCT-116 colon): 1.67 µM; TGI (HCT-116 colon): 3.41 µM; GI50 (T-47D breast): 1.87 µM; TGI (T-47D breast): 4.89 µM; GI50 (SNB-19 CNS): 2.13 µM; TGI (SNB-19 CNS): 10.6 µM; GI50 (NCI-H226 lung): 2.2 µM; TGI (NCI-H226 lung): 6.63 µM; GI50 (SK-MEL-28 melanoma): 1.73 µM; TGI (SK-MEL-28 melanoma): 3.28 µM; GI50 (HOP-62 NSCLC): 1.81 µM; TGI (HOP-62 NSCLC): 3.81 µM; GI50 (U251 CNS): 1.54 µM; TGI (U251 CNS): 2.87 µM; GI50 (SF-539 CNS): 1.91 µM; TGI (SF-539 CNS): 4.4 µM; GI50 (NCI/ADR-RES ovarian): 10 µM; TGI (NCI/ADR-RES ovarian): 23.2 µM
